# Measured values: patent publication EP4682145A1, “BENZOHETEROCYCLIC COMPOUND, AND PREPARATION METHOD THEREFOR AND USE THEREOF” (Cascade Pharmaceuticals, Inc., priority 2023, dated 2024)
# Target: T1, human FFAR1 (GPR40) (Homo sapiens, UniProt O14842)
# T1 construct: Flag; expressed in transfected cells; host or cells: HEK293T
# Experiment: NFAT-RE-based reporter gene activity assay (Dual-Glo luciferase) for GPR40 agonistic activity in co-transfected HEK293T cells
# Assay type: cell-based
# Conditions: 4-hour treatment
# Description: The pcDNA3.0-flag-FFAR1 (GPR40) plasmid was constructed using conventional molecular cloning methods. The main steps were as follows: The full-length cDNA sequence of human FFAR1 (GPR40) (NM_005303.3) was inserted into the HindIII and XbaI restriction sites of the pcDNA3.0 vector via PCR technology, resulting in the pcDNA3.0-flag-FFAR1 (GPR40) plasmid; pGL4.30 [luc2P NFAT-RE] (# E8481) and pRL-TK (#E2241) plasmids were both purchased from Promega; the plasmids were transformed into DH5α E. coli using the CaCl2 method, further cultured and amplified, and then purified using a plasmid extraction kit (TIANGEN, # DP117) to obtain the corresponding plasmid DNA.
# HEK293T cells were seeded in a 96-well plate at a density of 1 × 10^4/well one day prior to plasmid transfection. Cell transfection was performed according to the instructions of the transfection reagent FuGENE® HD (Promega, # E2311). The main steps were as follows: Taking one well as an example, plasmids pcDNA3.0-flag-FFAR1 (GPR40), pGL4.30 [luc2P NFAT-RE], and pRL-TK were added at ratios of 50 ng, 50 ng, and 5 ng, respectively, into 10 µL of Opti-MEM™ I medium (Gibco, #11058021) and mixed thoroughly; then, 0.2 µL of FuGENE® HD was added, mixed thoroughly, and allowed to stand at room temperature for 5 minutes; finally, this 10 µL mixture was added to the cell well containing 100 µL of culture medium. 24 hours after co-transfection, the compounds were serially diluted at half-logarithmic intervals with 1 µM as the highest concentration, resulting in 10 concentration gradients, which were added to the cell culture medium for a 4-hour treatment.
# After 4 hours of compound treatment, the cells were assayed according to the instructions of the Dual-Glo® Luciferase Assay System (Promega, # E2940). The main steps were as follows: 50 µL of culture medium was aspirated from each well and discarded, followed by the addition of 50 µL of Dual-Glo® Luciferase Reagent, and the mixture was shaken at room temperature for 10 minutes. Then, 80 µL of the lysate reaction solution was transferred to a white opaque optiPlate-96 well plate, and the luminescence signal of Firefly luciferase (Firefly-Luc) was measured using an MD i3x multifunctional microplate reader. Subsequently, 40 µL of Dual-Glo® Stop & Glo® Reagent was added, and the mixture was shaken at room temperature for 10 minutes. Finally, the luminescence signal of Renilla luciferase (Renilla-Luc) was measured using the MD i3x multifunctional microplate reader. The ratio of Firefly-Luc/Renilla-Luc was used as the compound's agonistic activity toward GPR40, and normalization was performed using the ratio of the solvent DMSO group. A dose-response curve was fitted using a four-parameter model with GraphPad Prism 8.0 software to calculate the EC50 value.
# T1 sequence (O14842 whole entry): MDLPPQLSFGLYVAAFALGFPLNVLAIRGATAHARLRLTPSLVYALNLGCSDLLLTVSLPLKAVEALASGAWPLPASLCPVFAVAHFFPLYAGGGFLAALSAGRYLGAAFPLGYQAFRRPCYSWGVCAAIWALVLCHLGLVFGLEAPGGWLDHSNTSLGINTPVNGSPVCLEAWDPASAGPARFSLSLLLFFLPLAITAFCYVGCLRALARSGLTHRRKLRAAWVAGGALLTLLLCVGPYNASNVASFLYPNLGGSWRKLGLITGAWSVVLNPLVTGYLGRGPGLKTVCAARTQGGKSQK
row,SMILES,EC50 [nM]
1,COCC(C)(C)n1cc(-c2c(C3CCN(c4cccc(OC)c4)CC3)oc3cc(C(CC(=O)O)C4CC4)ccc23)cn1 (stereo not drawn) [Compound 48],100 to 500
2,COc1cccc(N2CCC(c3oc4cc([C@@H](CC(=O)O)C5CC5)ccc4c3-c3nnc(C(C)(C)C(F)(F)F)o3)CC2)c1 [Compound 49],≤ 10
3,CNC(=O)C(C)(C)n1cc(-c2c(C3CCN(c4cccc(OC)c4)CC3)oc3cc(C(CC(=O)O)C4CC4)ccc23)cn1 (stereo not drawn) [Compound 52],100 to 500
4,COc1cccc(N2CCC(c3oc4cc(C(CC(=O)O)C5CC5)ccc4c3-c3cnn(C(C)(C)C(=O)N(C)C)c3)CC2)c1 (stereo not drawn) [Compound 53],100 to 500
5,COc1cccc(N2CCC(c3oc4cc([C@H](C5CC5)C(F)C(=O)O)ccc4c3-c3cnn(C(C)(C)C)c3)CC2)c1 (stereo partly drawn) [Compound 54],10 to 100
6,COc1cccc(N2CCC(c3oc4cc([C@H](C5CC5)C(C)C(=O)O)ccc4c3-c3cnn(C(C)(C)C)c3)CC2)c1 (stereo partly drawn) [Compound 55],≤ 10
7,COc1cccc(N2CCC(c3oc4cc(C(CCO)C5CC5)ccc4c3-c3cnn(C(C)(C)C)c3)CC2)c1 (stereo not drawn) [Compound 56],100 to 500
8,COc1cccc(N2CCC(c3oc4cc(CC(C)C(=O)O)ccc4c3-c3cnn(C(C)(C)C)c3)CC2)c1 (stereo not drawn) [Compound 60],100 to 500
9,CCC(Cc1ccc2c(-c3cnn(C(C)(C)C)c3)c(C3CCN(c4cccc(OC)c4)CC3)oc2c1)C(=O)O (stereo not drawn) [Compound 61],100 to 500
10,COc1cccc(N2CCC(c3oc4cc(OC(C)C(=O)O)ccc4c3-c3cnn(C(C)(C)C)c3)CC2)c1 (stereo not drawn) [Compound 65],100 to 500
11,CCC(CC(=O)O)c1ccc2c(-c3cnn(C(C)(C)C)c3)c(C3CCN(c4cccc(OC)c4)CC3)oc2c1 (stereo not drawn) [Compound 66],100 to 500
12,COc1cccc(N2CCC(c3oc4cc(C(CP(=O)(O)OC)C5CC5)ccc4c3-c3cnn(C(C)(C)C)c3)CC2)c1 (stereo not drawn) [Compound 70],> 500
13,COc1cccc(N2CCC(c3oc4cc([C@H](C5CC5)C(C)(C)C(N)=O)ccc4c3-c3cnn(C(C)(C)C)c3)CC2)c1 [Compound 71],100 to 500
14,COc1cccc(N2CCC(c3oc4cc(C(CC(=O)O)C5CC5)ccc4c3-c3cnn(C(C)(C)C)c3)CC2)n1 (stereo not drawn) [Compound 79],100 to 500
15,COc1cccc(N2CCC(c3oc4cc([C@@H](CC(=O)O)C5CC5)ccc4c3-c3ccc4c(c3)C3(CCCCC3)c3ccccc3-4)CC2)c1 [Compound 81],100 to 500
16,CNC(=O)c1cc(-c2c(C3CCN(c4cccc(OC)c4)CC3)oc3cc(C(CC(=O)O)C4CC4)ccc23)cn1C (stereo not drawn) [Compound 82],100 to 500
17,COc1ccnc(N2CCC(c3oc4cc(C(CC(=O)O)C5CC5)ccc4c3-c3cnn(C(C)(C)C)c3)CC2)c1 (stereo not drawn) [Compound 83],100 to 500
18,COc1ccc(OC)c(N2CCC(c3oc4cc(C(CC(=O)O)C5CC5)ccc4c3-c3cnn(C(C)(C)C)c3)CC2)c1 (stereo not drawn) [Compound 85],100 to 500

# Same assay, conditions: 4-hour treatment, class symbols
row,SMILES,Efficacy (%)
1,COCC(C)(C)n1cc(-c2c(C3CCN(c4cccc(OC)c4)CC3)oc3cc(C(CC(=O)O)C4CC4)ccc23)cn1 (stereo not drawn) [Compound 48],†† (150 ≥ Efficacy (%) > 100)
2,COc1cccc(N2CCC(c3oc4cc([C@@H](CC(=O)O)C5CC5)ccc4c3-c3nnc(C(C)(C)C(F)(F)F)o3)CC2)c1 [Compound 49],†† (150 ≥ Efficacy (%) > 100)
3,CNC(=O)C(C)(C)n1cc(-c2c(C3CCN(c4cccc(OC)c4)CC3)oc3cc(C(CC(=O)O)C4CC4)ccc23)cn1 (stereo not drawn) [Compound 52],† (100 ≥ Efficacy (%) > 50)
4,COc1cccc(N2CCC(c3oc4cc(C(CC(=O)O)C5CC5)ccc4c3-c3cnn(C(C)(C)C(=O)N(C)C)c3)CC2)c1 (stereo not drawn) [Compound 53],†† (150 ≥ Efficacy (%) > 100)
5,COc1cccc(N2CCC(c3oc4cc([C@H](C5CC5)C(F)C(=O)O)ccc4c3-c3cnn(C(C)(C)C)c3)CC2)c1 (stereo partly drawn) [Compound 54],†† (150 ≥ Efficacy (%) > 100)
6,COc1cccc(N2CCC(c3oc4cc([C@H](C5CC5)C(C)C(=O)O)ccc4c3-c3cnn(C(C)(C)C)c3)CC2)c1 (stereo partly drawn) [Compound 55],†† (150 ≥ Efficacy (%) > 100)
7,COc1cccc(N2CCC(c3oc4cc(C(CCO)C5CC5)ccc4c3-c3cnn(C(C)(C)C)c3)CC2)c1 (stereo not drawn) [Compound 56],† (100 ≥ Efficacy (%) > 50)
8,COc1cccc(N2CCC(c3oc4cc(CC(C)C(=O)O)ccc4c3-c3cnn(C(C)(C)C)c3)CC2)c1 (stereo not drawn) [Compound 60],†† (150 ≥ Efficacy (%) > 100)
9,CCC(Cc1ccc2c(-c3cnn(C(C)(C)C)c3)c(C3CCN(c4cccc(OC)c4)CC3)oc2c1)C(=O)O (stereo not drawn) [Compound 61],†† (150 ≥ Efficacy (%) > 100)
10,COc1cccc(N2CCC(c3oc4cc(OC(C)C(=O)O)ccc4c3-c3cnn(C(C)(C)C)c3)CC2)c1 (stereo not drawn) [Compound 65],†† (150 ≥ Efficacy (%) > 100)
11,CCC(CC(=O)O)c1ccc2c(-c3cnn(C(C)(C)C)c3)c(C3CCN(c4cccc(OC)c4)CC3)oc2c1 (stereo not drawn) [Compound 66],†† (150 ≥ Efficacy (%) > 100)
12,COc1cccc(N2CCC(c3oc4cc(C(CP(=O)(O)OC)C5CC5)ccc4c3-c3cnn(C(C)(C)C)c3)CC2)c1 (stereo not drawn) [Compound 70],†† (150 ≥ Efficacy (%) > 100)
13,COc1cccc(N2CCC(c3oc4cc([C@H](C5CC5)C(C)(C)C(N)=O)ccc4c3-c3cnn(C(C)(C)C)c3)CC2)c1 [Compound 71],†† (150 ≥ Efficacy (%) > 100)
14,COc1cccc(N2CCC(c3oc4cc(C(CC(=O)O)C5CC5)ccc4c3-c3cnn(C(C)(C)C)c3)CC2)n1 (stereo not drawn) [Compound 79],†† (150 ≥ Efficacy (%) > 100)
15,COc1cccc(N2CCC(c3oc4cc([C@@H](CC(=O)O)C5CC5)ccc4c3-c3ccc4c(c3)C3(CCCCC3)c3ccccc3-4)CC2)c1 [Compound 81],† (100 ≥ Efficacy (%) > 50)
16,CNC(=O)c1cc(-c2c(C3CCN(c4cccc(OC)c4)CC3)oc3cc(C(CC(=O)O)C4CC4)ccc23)cn1C (stereo not drawn) [Compound 82],† (100 ≥ Efficacy (%) > 50)
17,COc1ccnc(N2CCC(c3oc4cc(C(CC(=O)O)C5CC5)ccc4c3-c3cnn(C(C)(C)C)c3)CC2)c1 (stereo not drawn) [Compound 83],† (100 ≥ Efficacy (%) > 50)
18,COc1ccc(OC)c(N2CCC(c3oc4cc(C(CC(=O)O)C5CC5)ccc4c3-c3cnn(C(C)(C)C)c3)CC2)c1 (stereo not drawn) [Compound 85],†† (150 ≥ Efficacy (%) > 100)
